# From ChEMBL document CHEMBL1201862, “PubChem BioAssay data set” (2004)
#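 These data come from cells grown in 96-well plates and exposed to compound for 48 hours at five concentrations. GI50 marks 50% less growth.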 Active and inactive are the calls of the source. Rule as the data show it: active = GI50 up to about 1.1 µM and inactive = higher. Non-standard residues stand in square brackets, D forms with d. Residues, ends and D or L forms follow the SMILES beside them. *: point of attachment. Ac5c = NC1(C(=O)O)CCCC1; Cbz = O=C(OCc1ccccc1)*; Boc = CC(C)(C)OC(=O)*; tBu = CC(C)(C)*
# Tests used:
# Hs-578T = experiment: NCI anticancer screen, dose series, 48 h
# BT-549 = experiment: NCI anticancer screen, dose series, 48 h
Compound,GI50 (Hs-578T),GI50 (BT-549)
CCN(CC)C(=O)CCN1CC1,> 10 µM (inactive),> 10 µM (inactive)
O=S(=O)(Cc1nc2ccccc2s1)c1nc2ccccc2s1,19.9 µM (inactive),16.5 µM (inactive)
CC(=O)O[C@H]1CC[C@H]2[C@@H]3CCC4=C/C(=N/OCCN(C)C)CC[C@]4(C)[C@H]3CC[C@]12C,13.5 µM (inactive),12.8 µM (inactive)
CC1CC(C)(O)CC(C(O)CC2CC(=O)NC(=O)C2)C1=O (centres undefined) [RESACTIN A],< 0.0126 µM (active),0.113 µM (active)
CCCCC[C@H]1CCCCCCCCCC(=O)OC2C(O[C@@H]3OC(C)[C@H](OC(=O)[C@@H](C)CC)C(O[C@@H]4OC(C)[C@H](O)C(O)[C@@H]4O)[C@@H]3OC(=O)[C@H](C)CC)[C@H](OC3C(O)[C@@H](O)C(C)O[C@H]3O1)OC(CO)[C@H]2O (some centres undefined),16.4 µM (inactive),
O=C1CC(Sc2nc3ccc(I)cc3c(=O)n2Cc2ccccc2)C(=O)NN1 (centres undefined),18.5 µM (inactive),15.7 µM (inactive)
O=C1OC[C@@H]2Cc3c([nH]c4ccccc34)[C@@H](c3cc(O)c(O)c(O)c3)N12,15.7 µM (inactive),
Cc1cc(N(CCC#N)CCC#N)ccc1C(/N=N/c1ccc(Cl)cc1)=N\NC(=O)c1ccccc1,17 µM (inactive),25.6 µM (inactive)
N#C/C(=C\c1cc(F)cc(F)c1)c1ccccn1,,30.1 µM (inactive)
COC(O)C(=O)c1c2c(cc3c1CCC3)CCCC2 (centres undefined),4.22 µM (inactive),2.39 µM (inactive)
COCC1OC(OC2C3=C(C(C)C)CCC3(C)/C=C3\C(CCC3(O)COC)C(C)C2O)C(O)C2OC3OC12OC3(C)C1CO1 (centres undefined),19.6 µM (inactive),16.6 µM (inactive)
CC(=O)/C=C/C1=C(C)CCCC1(C)CC(C)C (centres undefined),32.7 µM (inactive),
NC12Oc3cc(O)cc(O)c3C1(c1ccc(Cl)cc1)c1c(O)cc(O)cc1O2 (centres undefined),28.8 µM (inactive),> 100 µM (inactive)
N#Cc1c(-c2ccc(Cl)cc2)cc(-c2nc3ccccc3[nH]2)nc1N,16.5 µM (inactive),14.4 µM (inactive)
CN1CCN(c2ccc3c(c2)NCC(=O)N3)CC1,> 100 µM (inactive),> 100 µM (inactive)
CC(=O)c1ccc(NCN2C(=O)c3ccccc3C2=O)cc1,> 100 µM (inactive),> 100 µM (inactive)
CCOC(=O)Cn1nnc2cc(Nc3c(C)[n+]([O-])c4cc(F)c(OCC)cc4[n+]3[O-])ccc21,41.8 µM (inactive),
COc1c(C(=O)/C(=N/Nc2cccc(Cl)c2)C(C)=O)c(O)c(OC)c2occc12,70 µM (inactive),
COc1ccc2ccccc2c1/C=C/C(=O)c1ccccc1,2.92 µM (inactive),2.96 µM (inactive)
COc1cc2c(cc1OC)C1C(O)C(OC)C(Br)C3(Br)CCN(C2)C13 (centres undefined),> 100 µM (inactive),> 100 µM (inactive)
CCOC(=O)/C=C/c1nc(C#N)c(N)o1,> 100 µM (inactive),
COC(=O)C1(NC(=O)C(Cc2ccccc2)NC(=O)C(NC(=O)C(CCCCNC(=O)OC(C)(C)C)NC(=O)C(Cc2c[nH]c3ccccc23)NC(=O)C(Cc2ccccc2)NC(=O)OCc2ccccc2)C(C)OC(C)(C)C)CCCC1 (centres undefined) (Cbz-FWK(Boc)T(tBu)F[Ac5c]-OMe; configuration not given here),> 100 µM (inactive),
COc1ccc2nc3c([N+](=O)[O-])ccc4c3c(c2c1)N=CN4CCCN(C)C,7.28 µM (inactive),8.22 µM (inactive)
Cc1ccc(S(=O)(=O)N2CCCN(S(=O)(=O)c3ccc(C)cc3)CC2)cc1,> 100 µM (inactive),
CC(=O)OC(C)(C)CCC(=O)[C@](C)(O)[C@H]1[C@H](O)C[C@@]2(C)[C@@H]3CC=C4C(C)=C(OC5OC(CO)C(O)C(O)C5O)C(=O)C[C@@H]4[C@]3(C)C(=O)C[C@]12C (some centres undefined),,> 100 µM (inactive)
O=c1[nH]c(=S)[nH]n1C(=S)n1[nH]c(=S)[nH]c1=O,> 100 µM (inactive),
NS(=O)(=O)c1ccc(-n2c(-c3cccs3)nc3ccc(I)cc3c2=O)cc1,,16.3 µM (inactive)
C/C(=N\NC(=S)N(C)CCN(C)C(=S)N/N=C(\C)c1ccccn1)c1ccccn1,25.9 µM (inactive),
c1cc2c(s1)-c1sccc1C21OCCO1,,50.5 µM (inactive)
